Values of other authors as cited in patent US20050048573A1, “PDE5A crystal structure and uses” (Plexxikon, Inc., priority 2003, published 2005).
pKd: −log10 of the molar value.

Biological target: PDE5 (Bos taurus, UniProt Q28156)
Conditions: allosteric sites; read-out: KD of PDE5 for binding cGMP in the allosteric sites

- pKd: ~6.70
Structure (SMILES): Nc1nc2c(ncn2[C@@H]2O[C@@H]3COP(=O)(O)O[C@H]3[C@H]2O)c(=O)[nH]1 [cGMP]
